Laboratory results: ChEMBL document CHEMBL4118050, “Gardenifolins A-H, Scalemic Neolignans from Gardenia ternifolia: Chiral Resolution, Configurational Assignment, and Cytotoxic Activities against the HeLa Cancer Cell Line” (J Nat Prod, 2017)
pIC50: −log10 of the molar value. Activity calls are given as the source filed them. The rule behind the calls is not given here.

What was measured:
Assay type in all cases: functional, cell-based
HeLa [1] = assay: Cytotoxicity against human HeLa cells assessed as reduction in cell viability after 72 hrs by WST8 assay
HeLa [2] = assay: Induction of apoptosis in human HeLa cells assessed as loss of cytoplasmic and nuclear integrity at 25 uM after 72 hrs by acridine orange/Hoechst 33342 staining based microscopic method
HeLa [3] = assay: Induction of apoptosis in human HeLa cells assessed as nuclear fragmentation at 25 uM after 72 hrs by acridine orange/Hoechst 33342 staining based microscopic method

| SMILES | pIC50 (HeLa [1]) | Activity (HeLa [2]) | Activity (HeLa [3]) |
| --- | --- | --- | --- |
| COC(=O)/C=C\c1cc(OC)c2c(c1)[C@@H](CO)[C@H](c1ccc(O)c(OC)c1)O2 | 4.06 | – | – |
| O=c1[nH]cc(F)c(=O)[nH]1 [FLUOROURACIL] | 4.86 | – | – |
| COC(=O)/C=C/c1cc(OC)c2c(c1)[C@H](CO)[C@@H](c1ccc(O)c(OC)c1)O2 | 4.05 | – | – |
| COC(=O)/C=C/c1cc(OC)c2c(c1)[C@@H](CO)[C@@H](c1ccc(O)c(OC)c1)O2 | 3.98 | – | – |
| COC(=O)/C=C/c1cc(OC)c2c(c1)[C@@H](CO)[C@H](c1ccc(O)c(OC)c1)O2 | 4.68 | Active | Active |
| COC(=O)/C=C/c1cc(OC)c2c(c1)[C@H](CO)[C@H](c1ccc(O)c(OC)c1)O2 | 4.02 | – | – |
| COC(=O)/C=C\c1cc(OC)c2c(c1)[C@H](CO)[C@@H](c1ccc(O)c(OC)c1)O2 | 4.10 | – | – |
| COC(=O)/C=C\c1cc(OC)c2c(c1)[C@@H](CO)[C@@H](c1ccc(O)c(OC)c1)O2 | 4.49 | – | – |
| COC(=O)/C=C\c1cc(OC)c2c(c1)[C@H](CO)[C@H](c1ccc(O)c(OC)c1)O2 | 3.99 | – | – |
